ChEMBL document CHEMBL1139855, “Molecular recognition of DNA by rigid [N]-polynorbornane-derived bifunctional intercalators: synthesis and evaluation of their binding properties” (J Med Chem, 2007)

Legend:
Escherichia coli = test: Binding affinity at Escherichia coli double stranded DNA by competition dialysis assay
DNA = test: Binding affinity at calf thymus double stranded DNA by competition dialysis assay; type: nucleic-acid assay; details: Bos taurus
[1] = Binding affinity at poly (dAdT). poly (dAdT) dsDNA polynucleotide by competition dialysis assay
[2] = Binding affinity at poly (dGdC). poly (dGdC) dsDNA polynucleotide by competition dialysis assay
[3] = Binding affinity at poly(dA).poly(dT) dsDNA polynucleotide by competition dialysis assay
[4] = Binding affinity at polyA.Poly U dsRNA polynucleotide by competition dialysis assay
Triticum aestivum = test: Binding affinity at wheat germ single stranded RNA by competition assay
[5] = Binding affinity at polyA ssRNA by competition dialysis assay

Structure (SMILES)	Kapp (Escherichia coli)	Kapp (DNA)	Kapp [1]	Kapp [2]	Kapp [3]	Kapp [4]	Kapp (Triticum aestivum)	Kapp [5]
COC(=O)C12OC(C(=O)OC)(C3C4CC(C5C(=O)N(CCNc6c7ccccc7nc7ccccc67)C(=O)C45)C31)C1C3CC(C12)C1C3C2(C(=O)OC)OC1(C(=O)OC)C1C3CC(C4C(=O)N(CCNc5c6ccccc6nc6ccccc56)C(=O)C34)C12 (stereo unspecified)	25.7 10^3/M	30.4 10^3/M	31.7 10^3/M	26.4 10^3/M	23.7 10^3/M	25.5 10^3/M	5.33 10^3/M	1.47 10^3/M
COC(=O)C12OC(C(=O)OC)(C3C4CC(C5C(=O)N(CCNc6c7ccccc7nc7ccccc67)C(=O)C45)C31)C1C3CC(C4C(=O)N(CCN5C(=O)c6cccc7cccc(c67)C5=O)C(=O)C34)C12 (stereo unspecified)	14.9 10^3/M	8.13 10^3/M	14.4 10^3/M	8.13 10^3/M	3.87 10^3/M	0.8 10^3/M	7.6 10^3/M	0.8 10^3/M
O=C1C2C3C=CC(C3)C2C(=O)N1CCNc1c2ccccc2nc2ccccc12 (stereo unspecified)	3.47 10^3/M	6.27 10^3/M	12.1 10^3/M	3.47 10^3/M	0.53 10^3/M	1.47 10^3/M	2.4 10^3/M	0 10^3/M
FC(F)(F)C12OC(C(F)(F)F)(C3C4CC(C5CN(CCNc6c7ccccc7nc7ccccc67)CC54)C31)C1C3CC(C4CN(CCNc5c6ccccc6nc6ccccc56)CC43)C12 (stereo unspecified)	19.1 10^3/M	20.3 10^3/M	29.5 10^3/M	27.6 10^3/M	19.6 10^3/M	0.53 10^3/M	0.53 10^3/M	1.73 10^3/M

Next, values leading:

Kapp (Escherichia coli)	Kapp (DNA)	Kapp [1]	Kapp [2]	Kapp [3]	Kapp [4]	Kapp (Triticum aestivum)	Kapp [5]	Structure (SMILES)
32.8 10^3/M	30.4 10^3/M	38.9 10^3/M	28.4 10^3/M	16.4 10^3/M	19.2 10^3/M	8.8 10^3/M	2.93 10^3/M	COC(=O)C12OC(C(=O)OC)(C3C4CC(C5C(=O)N(CCNc6c7ccccc7nc7ccccc67)C(=O)C45)C31)C1C3CC(C4C(=O)N(CCNc5c6ccccc6nc6ccccc56)C(=O)C34)C12 (stereo unspecified)
6.8 10^3/M	16 10^3/M	13.9 10^3/M	9.6 10^3/M	6.8 10^3/M	8.27 10^3/M	0.53 10^3/M	0.53 10^3/M	COC(=O)C12OC(C(=O)OC)(C3C4CC(C5C(=O)N(CCNC(=O)c6cccc7cc8ccccc8nc67)C(=O)C45)C31)C1C3CC(C4C(=O)N(CCNC(=O)c5cccc6cc7ccccc7nc56)C(=O)C34)C12 (stereo unspecified)
12.9 10^3/M	23.1 10^3/M	29.5 10^3/M	15.6 10^3/M	0.8 10^3/M	0.27 10^3/M	0.27 10^3/M	0.27 10^3/M	COC(=O)C12OC(C(=O)OC)(C3C4CC(C5C(=O)N(CCNC(=O)c6cccc7cc8ccccc8nc67)C(=O)C45)C31)C1C3CC(C4C(=O)N(CCNc5c6ccccc6nc6ccccc56)C(=O)C34)C12 (stereo unspecified)
